Measured values taken from patent publication US5340800A, “Peptide medicaments for the treatment of disease” (priority 1992, dated 1994).
Where two headings read alike, the source gives them in different places. No end group written: not given here.

Key:
[1] = system: polymorphonuclear leukocyte migration; assay: Chemotaxis of polymorphonuclear leukocytes (trans-well, zymosan-activated human serum); type: cell-based
Protocol: The materials and methods for ascertaining the chemotactic inhibitory properties of peptides are generally known in the art, and the preferred procedure is described by Capsoni, et al., 1989, J. of Immunol. Meth., 120:125. Generally, chemotaxis is determined by positioning the leukocytes and a chemotactic substance on opposite sides of a membrane in appropriate culture media. The preferred apparatus for doing a chemotaxis assay is produced by Costar Corporation, Cambridge, Mass., and is termed the trans-well cell culture apparatus. […] If a substance is being tested for inhibitory activity this can be achieved by combining it with the leukocytes or the chemotactic substance.
The procedure of Capsoni, et al., above, was followed with the following modifications. Leukocytes may be isolated and labelled with ^111 Indium as described for the adhesion assay, above. The cells are resuspended after labelling in an appropriate cell culture medium at about 5×10^6 cells/ml. Next, a desired amount of the cell suspension is mixed with a predetermined amount of the peptide(s) to be tested for inhibitory activity, and the mixture added to an appropriate filter device. Three μm-pore membranes are situated in the wells of a 24 trans-well tissue culture plate. The cell/inhibitory peptide mixture is incubated for a short time at 37° C. to acclimate the cells to the membrane surface, and to provide sufficient time for them to settle onto the membrane surface. Next, inserts are set in wells containing cell culture media. The media contains zymosan-activated human serum at about 0.5%. Zymosan activation generates complement-derived chemotactic factors which attract the leukocytes through the pores of the membrane. This media was also prewarmed for an appropriate time prior to addition to the cell culture wells. After a 30 minute incubation period at 37° C., the number of leukocytes that have migrated through the membrane filter, in the presence or absence of CD18 peptides, is readily determined by counting the amount of ^111 Indium present in the media. This may be facilitated by adding an appropriate detergent at an appropriate concentration to the media in the wells prior to removing an aliquot for counting. In this way, the inhibitory activities of the peptide being tested could be determined.
Many of the materials and methods used to test the inhibitory activity of the CD18 peptides on the chemotactic response of the polymorphonuclear leukocytes are similar or identical to those used to perform the adhesion assays described in Example 1. Polymorphonuclear leukocytes were isolated and labelled with ^111 Indium as described before, and the cells were suspended in RPMI 1640 culture medium at a concentration of 5×10^6 /ml. Next, 75 μl of the cell suspension and 25 μl of media containing a desired concentration of a CD18 peptide were added to trans-well inserts, and the mixture was incubated at 37° C. for 10 minutes.
To the bottom wells of the 24-well plate 0.6 ml of media containing 0.5% zymosan-activated human serum was added. This solution was also warmed to 37° C. for 10 minutes prior to use.
Next, the assay was conducted by incubating the trans-well inserts containing the cell suspension with the desired CD18 peptide in the 24-well plates at 37° C. for 30 minutes. Subsequently, the inserts were removed, and 60 μl of a 10% sodium dodecyl sulphate solution was added to the wells of the 24-well plate. The plates were incubated with gentle shaking at room temperature for 15 minutes, and 110 μl aliquots were removed and the amount of ^111 Indium determined using a gamma-counter.

[2] = system: polymorphonuclear leukocyte adhesion to TNF activated endothelial cells; type: cell-based, human; conditions: for Average % Change of PMN Adhesion to TNF Activated ECs: average over PMN donors (# donors in parentheses)
Protocol: Leukocyte adherence can be measured using several assays known in the art, and the preferred assay is described by Charo, et al., 1985, Blood, 65:473. Briefly, the assay consists of labelling leukocytes with an appropriate label, incubating them with endothelial cells and determining the number of leukocytes that adhere. Preferably the cells are labelled with a gamma ray emitting isotope and the preferred labels are ^111 Indium-oxide or ^51 chromium.
Leukocytes may be isolated from human donors using standard techniques. This generally consists of isolating blood in a physiologically balanced salt solution containing an appropriate anticoagulant, and separating the leukocytes by an appropriate separation step, preferably on Ficoll-Hypaquegradients. Contaminating erythrocytes can be removed by hypotonic lysis. The resulting leukocytes are suspended in a physiologically buffered solution, pH 7.4. The preferred physiological buffered solution is Hank's balanced salt solution that is calcium and magnesium free.
The isolated leukocytes can then be labelled by incubating them for an appropriate time, generally 15 minutes, with the desired radioisotope at a predetermined concentration. The radiolabelled cells are washed to remove unincorporated label, and then suspended in an appropriate solution to perform the adhesion assay described below.
Endothelial cells can be prepared from a number of sources and by several techniques known in the art. Preferably they are obtained from human umbilical veins using the procedure of Charo et al., above. Generally, endothelial cells are isolated by enzymatic digestion of the umbilical veins using, preferably, collagenase as described by Jaffe, E. A., et al., 1973, J. of Clin. Invest, 52:2745. The cells are grown on an appropriate tissue culture substratum, preferably gelatine-coated surfaces.
The endothelial cells may be grown in a variety of tissue culture media containing appropriate supplements such as an appropriate concentration of fetal calf serum, and other supplements/additives routinely utilized by those skilled in this art that are recognized as being favorable for endothelial cells. The endothelial cells may be passaged with a dilute solution of an appropriate protease, and if desired a metal ion chelator. Preferably a solution consisting of 0.05 to 0.25% trypsin and 0.02% EDTA is used. To ensure that the cells are indeed endothelial cells, they are tested by immunofluorescence for Factor VIII antigen, a known endothelial cell marker.
Leukocyte adherence to endothelial cell monolayers may be determined as follows. Early passage endothelial cells, generally not beyond the fifth passage, are cultured on an appropriate substratum and in a suitable cell culture medium. The culture substratum is preferably pre-coated with an appropriate substance that enhances the adherence of the endothelial cells. Several such substances are known including fibronectin, poly-L-lysine, gelatin and laminin. Fibronectin is preferred. An appropriate culture substratum is a 96 well micro titer plate, and a suitable medium is Medium 199 containing fetal calf serum and other supplements known to be beneficial for the growth and maintenance of endothelial cells that are well known to those skilled in the art. Prior to adding a predetermined number of labelled leukocytes, the endothelial cell monolayer is washed with a physiologically balanced salt solution containing a reduced amount of fetal calf serum, preferably 1%. The preferred solution is RPMI supplemented with 1% fetal calf serum.
The endothelial cell monolayer containing added leukocytes is incubated for a time sufficient to permit maximum adherence of the leukocytes, and preferably this is conducted at 37° C. for 30 minutes in an appropriate cell culture atmosphere. Generally this would consist of growing and incubating the cells for the assay period in 5% CO2, 95% air, and 95% humidity. […]

## YPIDLYYLMDLSYSMLDDLRNVKKLG [Peptide 1-26, NH2 --Tyr--Pro--Ile--Asp--Leu--Tyr--Tyr--Leu--Met--Asp--Leu--Ser--Tyr--Ser--Met--Leu--Asp--Asp--Leu--Arg--Asn--Val--Lys--Lys--Leu--Gly--COOH]
[1]; 10^-4 M, donor 195
  percent inhibition (-) or enhancement of polymorphonuclear leukocyte migration: 19%
[1]; 10^-4 M, donor 499
  percent inhibition (-) or enhancement of polymorphonuclear leukocyte migration: 8%
[1]; 10^-4 M, donor 591
  percent inhibition (-) or enhancement of polymorphonuclear leukocyte migration: -9%
[1]; 10^-4 M, donor 593
  percent inhibition (-) or enhancement of polymorphonuclear leukocyte migration: -50%
[1]; 10^-5 M, donor 195
  percent inhibition (-) or enhancement of polymorphonuclear leukocyte migration: -41%
[1]; 10^-5 M, donor 499
  percent inhibition (-) or enhancement of polymorphonuclear leukocyte migration: -3%
[1]; 10^-5 M, donor 591
  percent inhibition (-) or enhancement of polymorphonuclear leukocyte migration: -36%
[1]; 10^-5 M, donor 593
  percent inhibition (-) or enhancement of polymorphonuclear leukocyte migration: -19%
[1]; 10^-6 M, donor 195
  percent inhibition (-) or enhancement of polymorphonuclear leukocyte migration: -37%
[1]; 10^-6 M, donor 499
  percent inhibition (-) or enhancement of polymorphonuclear leukocyte migration: 13%
[1]; 10^-6 M, donor 591
  percent inhibition (-) or enhancement of polymorphonuclear leukocyte migration: -39%
[1]; 10^-6 M, donor 593
  percent inhibition (-) or enhancement of polymorphonuclear leukocyte migration: -14%
[2]
  concentration of peak inhibitory activity in the PMN adhesion assay: 10^-4 to 10^-5 M
[2]; 10^-4 M
  Average % Change of PMN Adhesion to TNF Activated ECs: -41%
[2]; 10^-5 M
  Average % Change of PMN Adhesion to TNF Activated ECs: -33%
[2]; 10^-6 M
  Average % Change of PMN Adhesion to TNF Activated ECs: -6%
[2]; 10^-7 M
  Average % Change of PMN Adhesion to TNF Activated ECs: +24%
[2]; 10^-8 M
  Average % Change of PMN Adhesion to TNF Activated ECs: +9%
